Laboratory results reported in patent US20120165384A1, “INHIBITION OF HISTONE ACETYLTRANSFERASES BY CTK7A AND METHODS THEREOF” (JAWAHARLAL NEHRU CENTRE FOR ADVANCED SCIENTIFIC RESEARCH, priority 2009, published 2012).
Values belong to the molecule of their own block, whether it stands above or below them.

Columns and labels:
[1] = system: NPM1 and GAPDH acetylation in KB cells; test: NPM1 and GAPDH acetylation in KB cells (anti-acetyl lysine immunoprecipitation, western blotting); format: cell-based
Experimental: (§1) KB cells were maintained in Dullbecco's modified Eagle medium (DMEM) with 10% fetal bovine serum (FBS) at 37° C. with a 5% CO2 atmosphere in a humidified incubator. For IFNγ and GSNO treatment, KB cells were incubated in the presence of IFNγ 10 ng ml^−1 for an additional 16 h and 24 h respectively. Immunofluorescent staining of cells for confocal microscopy was carried out as described previously^30. CTK7A treatment was done for 24 h followed by acid extraction of histone and immunoblotting as per standard protocol^31.
Whole cell extract were prepared using RIPA buffer as mentioned above. The pre-blocked protein-G sepharose-bound antibody (4 μg) was incubated with 500 μg whole cell lysate overnight at 4° C. After extensive washes, bead-bound protein were analysed by western blotting with indicated antibodies. For HDAC inhibitors treatment, 5 mM sodium butyrate, 5 mM nicotiamide and 100 ng ml^−1 TSA were added 10 h before cells were harvest^36.

Solubility test in water = format: physicochemical
Experimental: To a solution of curcumin in methanol (10 mg, 0.027 Mmol) […]. After incubation for 24 h, the solvent was evaporated in vacuum. The residue […] was purified with repeated recrystallization and filtration method using TLC (CHCl3/MeOH=4:1; Rf=0.5). This gave CTK7 as a dark orange powder (7.18 mg, 55%) which was analyzed by H^1 NMR, Melting point test, Solubility test and ESI-MS.
To a solution of CTK7 in methanol (50 mg, 0.1031 mmol), (10 ml) of Sodium ethoxide was added ([…], 0.1175 mmol) and the reaction mixture was stirred at room temperature for 90 minutes. The solvent was evaporated in vacuum and the residue was washed with hexane, diethyl ether and ethyl acetate. Product was confirmed through H^1 NMR, Solubility test, melting point.

[2] = system: Histone H3K14 acetylation in KB cells; test: H3K14 acetylation in GSNO treated KB cells (western blotting); format: cell-based; conditions: concentration dependent
Experimental: as §1, with “protocol^31. For whole cell extract preparation RIPA buffer (Tris-HCl 50 mM, pH 7.4 NP-40 1%, Na-deoxycholate 0.25%, NaCl 150 mM, EDTA 1 mM, Phenylmethylsulfonyl fluoride (PMSF), 1 mM Na3VO4, 1 mM NaF and protease inhibitor cocktail) was used.” for “protocol^31.”

[3] = system: NPM1 and GAPDH expression in KB cells; test: NPM1 and GAPDH expression in treated KB cells; format: cell-based; conditions: 24 h
Experimental: as §1, with “protocol^31. For whole cell extract preparation RIPA buffer (Tris-HCl 50 mM, pH 7.4 NP-40 1%, Na-deoxycholate 0.25%, NaCl 150 mM, EDTA 1 mM, Phenylmethylsulfonyl fluoride (PMSF), 1 mM Na3VO4, 1 mM NaF and protease inhibitor cocktail) was used.” for “protocol^31.”

human melanocytes = conditions: earlier report, cited from earlier work
p300 = p300 (Homo sapiens, UniProt Q09472); test: HAT assay with recombinant p300; format: biochemical; design: hexahistidine; made in house; host or cells: baculovirus-infected Sf21 cells
Chain of p300 (Q09472 whole entry, species assumed): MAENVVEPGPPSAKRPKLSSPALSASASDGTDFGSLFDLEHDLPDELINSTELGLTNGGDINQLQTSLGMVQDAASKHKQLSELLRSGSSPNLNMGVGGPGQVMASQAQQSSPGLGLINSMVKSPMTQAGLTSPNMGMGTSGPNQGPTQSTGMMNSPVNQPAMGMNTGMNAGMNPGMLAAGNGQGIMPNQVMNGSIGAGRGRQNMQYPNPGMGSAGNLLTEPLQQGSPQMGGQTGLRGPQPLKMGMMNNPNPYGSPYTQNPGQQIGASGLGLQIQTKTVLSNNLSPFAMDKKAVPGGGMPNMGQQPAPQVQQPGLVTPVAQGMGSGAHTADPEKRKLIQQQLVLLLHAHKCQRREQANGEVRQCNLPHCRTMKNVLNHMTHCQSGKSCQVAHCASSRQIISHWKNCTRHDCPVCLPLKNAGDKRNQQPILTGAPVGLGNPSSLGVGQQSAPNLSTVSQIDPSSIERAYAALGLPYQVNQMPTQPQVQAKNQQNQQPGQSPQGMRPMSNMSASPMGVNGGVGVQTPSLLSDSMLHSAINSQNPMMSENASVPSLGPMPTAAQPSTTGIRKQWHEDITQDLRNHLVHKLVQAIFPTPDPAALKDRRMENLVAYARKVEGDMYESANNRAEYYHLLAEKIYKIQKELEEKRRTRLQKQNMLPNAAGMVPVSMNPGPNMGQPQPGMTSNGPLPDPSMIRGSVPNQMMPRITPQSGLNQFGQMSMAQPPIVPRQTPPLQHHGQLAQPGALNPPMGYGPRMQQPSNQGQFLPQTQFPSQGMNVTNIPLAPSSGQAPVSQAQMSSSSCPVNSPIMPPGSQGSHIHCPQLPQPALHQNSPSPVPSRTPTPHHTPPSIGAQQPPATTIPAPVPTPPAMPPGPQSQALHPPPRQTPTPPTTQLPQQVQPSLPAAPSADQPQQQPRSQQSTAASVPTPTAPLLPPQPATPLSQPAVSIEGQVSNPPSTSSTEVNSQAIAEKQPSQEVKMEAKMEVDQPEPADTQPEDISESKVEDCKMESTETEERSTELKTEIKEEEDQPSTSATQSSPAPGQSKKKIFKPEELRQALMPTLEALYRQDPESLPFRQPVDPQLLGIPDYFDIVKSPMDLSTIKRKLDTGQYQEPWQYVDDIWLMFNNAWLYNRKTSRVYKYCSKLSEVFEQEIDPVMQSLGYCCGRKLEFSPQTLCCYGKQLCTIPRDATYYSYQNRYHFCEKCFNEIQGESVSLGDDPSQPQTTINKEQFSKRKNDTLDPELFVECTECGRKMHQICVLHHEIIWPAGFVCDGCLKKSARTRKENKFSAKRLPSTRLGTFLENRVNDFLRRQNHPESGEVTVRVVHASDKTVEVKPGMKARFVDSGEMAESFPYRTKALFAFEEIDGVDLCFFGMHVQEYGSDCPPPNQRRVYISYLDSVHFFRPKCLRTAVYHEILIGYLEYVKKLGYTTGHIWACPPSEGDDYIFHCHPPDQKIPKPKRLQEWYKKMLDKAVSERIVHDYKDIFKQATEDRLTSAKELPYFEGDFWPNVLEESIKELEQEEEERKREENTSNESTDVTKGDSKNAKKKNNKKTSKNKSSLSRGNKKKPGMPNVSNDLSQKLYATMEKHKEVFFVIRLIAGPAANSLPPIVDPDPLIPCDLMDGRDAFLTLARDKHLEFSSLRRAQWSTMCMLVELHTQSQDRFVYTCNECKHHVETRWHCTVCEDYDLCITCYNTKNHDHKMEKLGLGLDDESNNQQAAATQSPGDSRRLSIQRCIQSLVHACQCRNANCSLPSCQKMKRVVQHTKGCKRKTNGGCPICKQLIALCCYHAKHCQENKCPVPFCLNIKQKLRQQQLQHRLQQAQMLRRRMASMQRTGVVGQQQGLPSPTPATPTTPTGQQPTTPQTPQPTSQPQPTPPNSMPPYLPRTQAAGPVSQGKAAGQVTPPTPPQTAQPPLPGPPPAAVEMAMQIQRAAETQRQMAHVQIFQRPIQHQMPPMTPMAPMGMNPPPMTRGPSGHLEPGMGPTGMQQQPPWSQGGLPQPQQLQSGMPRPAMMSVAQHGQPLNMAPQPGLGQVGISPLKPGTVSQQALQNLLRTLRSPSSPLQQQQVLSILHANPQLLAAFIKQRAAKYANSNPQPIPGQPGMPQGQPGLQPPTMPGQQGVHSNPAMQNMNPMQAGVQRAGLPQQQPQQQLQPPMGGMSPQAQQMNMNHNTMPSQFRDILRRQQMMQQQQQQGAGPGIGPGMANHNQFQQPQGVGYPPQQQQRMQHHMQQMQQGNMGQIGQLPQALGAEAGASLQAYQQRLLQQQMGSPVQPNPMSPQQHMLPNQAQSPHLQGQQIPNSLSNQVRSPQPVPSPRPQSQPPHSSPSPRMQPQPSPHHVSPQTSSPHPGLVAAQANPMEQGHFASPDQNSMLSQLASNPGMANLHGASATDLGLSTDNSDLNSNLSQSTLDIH
Experimental: (§2) Recombinant baculovirus expressing full-length FLAG-tagged CARM1,CBP and PCAF were purified by immunoaffinity chromatography using M2-agarose beads followed by elution with FLAG peptide. Baculovirus-expressed full-length hexahistidine-tagged p300, and G9a were purified using Ni-NTA affinity chromatography as described previously^30.
(§3) HAT gel fluorography/autoradiography assays were performed as previously reported^30. Kinetic analysis of p300 HAT inhibition was performed as reported earlier^31 in the presence of (0, 30 and 50 μM) CTK7A. The obtained values were plotted as a lineweaver burk plot using Graphpad Prism software. For p300 Autoacetylation assay, reactions of p300 full length (80 ng) were carried out in HAT assay buffer at 30° C. for 10 minutes with or without the protein (NPM1) followed by addition of 1 μl of 4.7 Ci/mmol [^3H] acetyl CoA (NEN-PerkinElmer) and were further incubated for another 10 min in a 30 μl reaction. GAPDH was used as positive control. The radio-labeled acetylated p300 were processed by fluorography followed by autoradiography.

PCAF = target: T1, PCAF (Homo sapiens, UniProt Q92831); test: HAT assay with recombinant PCAF; format: biochemical
T1 construct: Recombinant baculovirus expressing full-length FLAG-tagged CARM1,CBP and PCAF; FLAG; made in house; host or cells: baculovirus-infected Sf21 cells
T1 sequence (Q92831 whole entry, species assumed): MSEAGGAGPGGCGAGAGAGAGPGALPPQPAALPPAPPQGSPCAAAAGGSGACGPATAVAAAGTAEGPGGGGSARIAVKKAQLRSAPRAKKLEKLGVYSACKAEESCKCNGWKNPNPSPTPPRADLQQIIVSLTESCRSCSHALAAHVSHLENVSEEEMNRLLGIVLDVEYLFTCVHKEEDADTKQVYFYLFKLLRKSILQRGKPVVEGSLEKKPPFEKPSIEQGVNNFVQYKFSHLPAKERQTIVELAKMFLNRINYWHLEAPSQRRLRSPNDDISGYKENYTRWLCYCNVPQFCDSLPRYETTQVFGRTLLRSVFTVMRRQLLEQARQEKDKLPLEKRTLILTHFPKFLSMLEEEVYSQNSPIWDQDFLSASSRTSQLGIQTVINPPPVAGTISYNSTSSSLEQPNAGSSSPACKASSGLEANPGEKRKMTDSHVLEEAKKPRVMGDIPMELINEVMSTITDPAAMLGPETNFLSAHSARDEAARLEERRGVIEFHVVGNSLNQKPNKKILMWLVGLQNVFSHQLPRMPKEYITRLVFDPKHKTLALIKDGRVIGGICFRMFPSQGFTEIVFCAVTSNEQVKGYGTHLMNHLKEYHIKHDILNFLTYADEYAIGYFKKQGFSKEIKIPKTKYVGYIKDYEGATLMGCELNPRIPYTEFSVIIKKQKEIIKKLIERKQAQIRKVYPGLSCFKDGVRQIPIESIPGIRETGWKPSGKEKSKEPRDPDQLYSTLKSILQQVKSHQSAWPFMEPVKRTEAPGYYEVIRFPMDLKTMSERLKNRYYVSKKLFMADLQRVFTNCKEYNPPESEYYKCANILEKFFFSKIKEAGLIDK
Experimental: as §2, §3

full length p300 = target: T2, full length p300 (Homo sapiens, UniProt Q09472); test: p300 autoacetylation assay in vitro (3H-acetyl CoA, fluorography/autoradiography); format: biochemical; conditions: dose dependent; 3H-acetyl-CoA
T2 construct: hexahistidine; made in house; host or cells: baculovirus-infected Sf21 cells
T2 sequence (Q09472 whole entry, species assumed): as the sequence (Q09472 whole entry, species assumed) above
Experimental: as §3

[4] = system: GAPDH localisation in KB cells; test: GAPDH nuclear translocation in KB cells (immunofluorescence); format: cell-based; conditions: 10 ng ml−1, 16 h
Experimental: as §1, with “protocol^31. For whole cell extract preparation RIPA buffer (Tris-HCl 50 mM, pH 7.4 NP-40 1%, Na-deoxycholate 0.25%, NaCl 150 mM, EDTA 1 mM, Phenylmethylsulfonyl fluoride (PMSF), 1 mM Na3VO4, 1 mM NaF and protease inhibitor cocktail) was used.” for “protocol^31.”

Molecule: CC(=N)NCc1cccc(CN)c1 [1400 W, N-(3-(Aminomethyl)benzyl)acetamidine]
effect on IFNγ-enhanced GAPDH and NPM1 acetylation ([1]; 100 μM): abolished or reduced

solubility in water (Solubility test in water): Insoluble
Molecule: COc1cc(C=Cc2cc(C=Cc3ccc(O)c(OC)c3)n(-c3ccc(C(=O)O)cc3)n2)ccc1O [CTK7, Hydrazinobenzoylcurcumin]

Molecule: N[C@@H](CCC(=O)N[C@@H](CSN=O)C(=O)NCC(=O)O)C(=O)O [GSNO, S-nitroso-glutathione]
acetylation of GAPDH ([1]; 200 μM GSNO, 24 h): gets acetylated
acetylation of NPM1 ([1]; 200 μM GSNO, 24 h): dramatically enhanced
level of H3K14 acetylation [2]: enhanced
expression of GAPDH [3]: enhanced in a concentration dependent manner
expression of NPM1 [3]: enhanced in a concentration dependent manner

Molecule: CC(C)(COP(=O)(O)OP(=O)(O)OC[C@H]1O[C@@H](n2cnc3c(N)ncnc32)[C@H](O)[C@@H]1OP(=O)(O)O)[C@@H](O)C(=O)NCCC(=O)NCCSC(=O)[C@@H](N)CCCCN [Lysyl-CoA, lysyl-CoA]
proliferation of human melanocytes (human melanocytes): inhibited
senescence of human melanocytes (human melanocytes; with expression SA-β-gal): induced senescence-like growth arrest

inhibition of p300 HAT activity (p300): inhibitory effect
inhibition of PCAF HAT activity (PCAF): inhibitory effect
Molecule: COc1cc(/C=C/C(=O)CC(=O)/C=C/c2ccc(O)c(OC)c2)ccc1O [curcumin, reference compound]

activation of autoacetylation of p300 (full length p300): activate
Molecule: NPM1: Nucleophosmin, histone chaperone, multifunctional nucleolar protein

B1: IFNγ: interferon γ, a proinflamatory cytokine that activates iNOS to produce NO (protein, UniProt P01579 24-161, looked up)
Interferon gamma: QDPYVKEAENLKKYFNAGHSDVADNGTLFLGILKNWKEESDRKIMQSQIVSFYFKLFKNFKDDQSIQKSVETIKEDMNVKFFNSNKKKRDDFEKLTNYSVTDLNVQRKAIHELIQVMAELSPAAKTGKRKRSQMLFRG
GAPDH and NPM1 acetylation ([1]; IFNγ 10 ng ml−1, 16 h, NO-dependent): enhanced
translocation of GAPDH to nucleus [4]: induce the translocation
